Data set [1] deals with HEK293 cells or Huh7 cells. The data set can be described thus: In vitro transduction assay, AAV8/luc with peptides. It is filed as cell-based, human. As to conditions: 10000 vg AAV8/luc incubated with peptides 2 h at 4° C.; both cell lines; 48 h; vs AAV8 only. On the procedure:
In vitro transduction assay. At least 4-5 h prior to AAV transduction, cells were seeded in 48-well plates with a density of 1E+05 cells each well. Cells were infected with 1E+04 vector genomes (vg) of AAV8/luc virus per cell and harvested after 48 h. Luciferase activity was measured following manufacturer's instruction (Promega, Madison, WI).
The complex of AAV8 and peptides influences AAV8 transduction in vitro and in vivo. To identify the potential and functional peptides that enhanced AAV8 transduction, we screened several reported peptides as shown in Table 5 and Table 6. First, we tested the cytotoxicity of peptides at different concentrations on cells. […] After that, we performed the transduction assay in vitro. We incubated the 10000 vg AAV8/luc and peptides for 2 h at 4° C., and then applied the mixture to HEK293 cells or Huh7 cells. After 48 h, the cell lysate was collected for luciferase analysis.

For data set [2], the system named is C57BL/6 mice. The data set is described as follows: In vivo luciferase imaging after retro-orbital injection of AAV8/luc with peptides. On the set-up: species or system mouse. As to conditions: 0.1 mM peptides + 5E+10 vg AAV8/luc, retro-orbital vein, 7th day.
Protocol: Animal study. […] Mice were administered with AAV8/Luc incubated with peptides via retro-orbital injection. Luciferase expression was imaged at the indicated time points using a Xenogen IVIS Lumina (Caliper Lifesciences, Waltham, MA) following intraperitoneal injection of D-luciferin substrate (Nanolight Pinetop, AZ). Bioluminescent images were analyzed using Living Image (PerkinElmer, Waltham, MA). At various time points after injection, blood was collected from the retro-orbital plexus, and the viral titers were tested by qPCR.
The test system of data set [3] is C57BL/6 mice. The data set is described as follows: Quantitation of luciferase expression in tissues. It is filed as in vivo, mouse. To be noted: 0.1 mM peptides + 5E+10 vg AAV8/luc. On the procedure: Quantitation of luciferase expression in tissues. Animals utilized for imaging studies were sacrificed after one-week post imaging work, and the tissues of the heart, liver, spleen, skeletal muscle and brain were collected, and were minced and homogenized in passive lysis buffer. Then the lysates were centrifuged at 10,000 rpm for 5 minutes to remove cellular debris. Supernatant was transferred to 96-well plates for luciferase activity analysis as described above. Total protein concentration in tissue lysates was measured using the Bradford assay (Bio-Rad Laboratories, Philadelphia, PA).

Data set [4] concerns human transferrin binding to AAV8 virions. The data set is described as follows: AAV8 competitive binding assay. To be noted: pre-incubation with AAV8, then human transferrin; pull down with transferrin antibody, qPCR. On the procedure:
AAV8 competitive binding assay. For THR competitive binding analysis, 10 ul of Protein G resin (Thermo, USA) per system was incubated with 1 ug of human transferrin antibody or goat IgG antibody control at 4° C. overnight. […] After that, the mixture was added to the complex of protein G resin and transferrin antibody and incubated at 4° C. overnight. Finally, the complex was stringently washed three times with cold DPBS. DNA from the complex was extracted and applied for qPCR to determine AAV genome copy number per cell using luc specific primers.
To investigate whether THR also binds to the same location of AAV8 virions as human serum proteins, we performed a competitive assay. […] The transferrin antibody was used to pull down transferrin bound AAV8 virions and AAV8 gene copy number was measured by qPCR.
(In qPCR the cycle at which signal appears reflects the starting amount.)

Data set [5] relates to AAV9 virions. The data set can be described thus: Phage binding to AAV-coated plate. On the procedure: FIGS. 13A-13B show binding specificity of PB5-3 peptide to AAV9. After coating with 1×10^10 particles of AAV9, different phages at a dose of 1×10^11 were added to a 96 well plate and incubated. After washing, the number of bound phages was detected (FIG. 13A). A 96 well-plate was coated with 1×10^10 particles of AAV vectors/well from serotypes 6, 8 and 9 overnight. After washing, 1×10^11 of PB5-3 phages were added and incubated at room temperature for 2 hrs. After washing, the phage particles were detected (FIG. 13B).
To study the AAV9 virion binding affinity of the peptides isolated from phage, first we compared the affinity of the different peptides to AAV9 virions. After incubation of an AAV9-coated plate with different phages and several washings, much more PB5-3 phages were detected to bind to AAV9 than PB5-5 and PB5-14 phages (FIG. 13A). […] We coated the plate with AAV virions from different serotypes. After incubation with PB5-3 phages, the number of phages on the AAV9-coated plate was much higher than that with AAV6 and AAV8 (FIG. 13B).

Data set [6] has as its system different cell types. As to conditions: different concentrations, 48 hrs. On the procedure: 1×10^4 cells were incubated with PB5-3 peptide at different concentrations for 48 hrs. Cell proliferation was analyzed with MTT assay (FIG. 14A). AAV9/luc vectors at a dose of 1×10^9 particles were incubated with PB5-3 peptide for 2 hrs at 4° C., then the mixture was applied to different cells and incubated for 2 days. Luciferase expression from cell lysate was detected (FIG. 14B). For comparison, PB5-3 was added to cells just before infection of AAV9 (FIG. 14C).

Data set [7] relates to Huh7, Hela, C2C12 and hCMEC/D3. The data set can be described thus: AAV9/luc transduction in cell lines with PB5-3. It is filed as cell-based. On the procedure: Cell proliferation was analyzed with MTT assay (FIG. 14A). […] Luciferase expression from cell lysate was detected (FIG. 14B).
PB5-3 peptide specifically enhances AAV9 transduction in cell lines. Next, we examined the effect of PB5-3 on AAV9 transduction in vitro. […] Consistent with previous studies, the direct interaction of peptide and AAV virions is required to enhance AAV9 transduction.

The test system of data set [8] is Huh7 or hCMEC/D3 cells. The data set is described as follows: Transduction of AAV serotypes 2, 6 and 8 with PB5-3 in vitro. It is filed as cell-based. To be noted: incubated with PB5-3; either cell line. On the procedure: 1×10^9 particles of AAV/luc vectors from serotype 2 (FIG. 15A), 6 (FIG. 15B), and 8 (FIG. 15C) were incubated with PB5-3 peptide for 2 hr at 4° C. The complex of AAV vector and peptide was applied to Huh7 or hCMEC/D3 cells. Two days later, the lysate from these cells was harvested for luciferase analysis.
Analysis of enhancement of AAV transduction from other serotypes with PB5-3 peptide in vitro. To further investigate the specific effect of PB5-3 on AAV9, we tested the effect of PB5-3 on AAV transduction from other serotypes. AAV vectors from serotypes 2, 6, and 8 were incubated with PB5-3 and then the mixture was applied to Huh7 or hCMEC/D3 cells. The transduction was detected two days later after AAV infection.

Data set [9] relates to C57BL mice. The data set can be described thus: Systemic administration of AAV9/PB5-3 complex, imaging and genome copy number. It is filed as in vivo, mouse. On the procedure: 1×10^10 particles of AAV9/luc vectors were incubated with PB5-3 for 2 hr at 4° C. The complex was injected into C57BL mice via the retro-orbital vein. At indicated time points, mouse imaging was performed. (FIG. 16A) representative imaging. (FIG. 16B) luciferase expression. (FIG. 16C) AAV genome copy number. The results represented the average and standard derivation from five mice.
PB5-3 peptide enhances AAV9 transduction in the brain after systemic administration. To study the effect of PB5-3 peptide on AAV9 transduction in mice, we injected AAV9 vectors pre-incubated with PB5-3 peptide into C57BL mice via the retro-orbital vein. At days 1, 3, 7, and 14 post AAV administration, mouse imaging was taken. […] Transduction in the liver was similar regardless of AAV9 pre-incubation with PB5-3 peptide (FIG. 16B). Consistent to tissue transgene expression, AAV genome copy number in the brain but not in other tissues was higher in mice receiving the complex of AAV9 and PB5-3 (FIG. 16C).

Data set [10] relates to C57BL mice. The data set is described as follows: Systemic administration of AAV6 and AAV8 pre-incubated with PB5-3, imaging. It is filed as in vivo, mouse. As to conditions: pre-incubated with PB5-3, days 5 and 10. On the procedure:
AAV/luc vectors from serotypes 6 or 8 at a dose of 5×10^10 or 1×10^10 particles, respectively, were incubated with PB5-3 for 2 hrs at 4° C. The complex was injected into C57BL mice via retro-orbital vein. At day 5 and 10 post AAV injection, mouse imaging was carried out. Representative imaging is shown from five mice.
No effect of PB5-3 peptide on AAV brain transduction from other serotypes after systemic administration. To confirm the result in vitro that PB5-3 peptide could not efficiently bind to other AAV serotypes except for AAV9, we administered AAV6 and AAV8 vectors pre-incubated with PB5-3 in C57BL mice via retro-orbital injection. At days 5 and 10 post AAV application, mouse imaging was carried out.

Data set [11] has as its system BBB hCMEC/D3 endothelial cells. The data set can be described thus: In vitro endothelial cell permeability analysis of AAV9. It is filed as cell-based, human. As to conditions: AAV9 pre-incubated with PB5-3 vs AAV9 with DPBS. On the procedure: Media in the basal chamber was collected at indicated time points and viral genome copy number was analyzed by qPCR. All treatments were performed in triplicate. *p<0.05 when compared to cells with the AAV9 only.
PB5-3 peptide enhances AAV9 permeability in vitro. To study whether PB5-3 affects the ability of AAV9 to cross the endothelial cell layer, we performed an in vitro endothelial cell permeability analysis in a well-defined system using BBB hCMEC/D3 endothelial cells. Two groups were designed: an AAV9 vector incubated with DPBS (AAV9 cohort); and an AAV9 vector incubated with PB5-3 (AAV9-PB5-3 cohort). […] These observations indicate that the interaction of AAV9 with the PB5-3 peptide increased the ability of AAV9 to cross the BBB.

The test system of data set [12] is C57BL/6 mice. The data set can be described thus: Measurement of AAV genome copy number in tissue. It is filed as in vivo, mouse. To be noted: 0.1 mM peptides + 5E+10 vg AAV8/luc; vs AAV8 only. On the procedure: Measurement of AAV genome copy number in tissue. Total gDNA from different minced tissues was isolated with the DNeasy blood & tissue kit (Qiagen, USA). Luciferase gene was measured by qPCR assay. Mouse-lamin gene served as an internal control.

“Also recorded” adds a separate entry of the source. Ends that are not written are not given here.

In the case of KKALLALALHHLAHLALALKKAC [LAH4], the “AAV8 transduction (luciferase)” value in [1] is on record as “significantly enhanced AAV8 transduction”. Besides, the “transgene expression in the liver (imaging)” value (“transgene expression” for short) in [2] is listed as “higher”. Also, in data set [3], the “AAV8 brain transduction (luc expression and genome number)” value (shortened to “AAV8 brain transduction”) was “no effect on brain transduction”; the AAV8 liver transduction entry is listed as “increased AAV8 liver transduction”.
As for GRKKRRQRRRPPQ [HIV-1 TAT (48-60)], the “AAV8 transduction (luciferase)” value in [1] is “significantly enhanced AAV8 transduction”. In addition, the “transgene expression” value in data set [2] is recorded as “higher”. Moreover, in [3], the “AAV8 brain transduction” value was “no effect on brain transduction”; the AAV8 liver transduction entry is “increased AAV8 liver transduction”.
As to “FILMVWAPFI [PEPXT-1, control peptide, neutral polarity]”, the “inhibition of transferrin binding to AAV8” value in [4] is given as “no effect”.
Turning to QFAALPVRAHYG-NH2 [PB5-3], the “number of phages on AAV9-coated plate vs other serotypes” value in data set [5] (vs AAV6 and AAV8 coated plates) was “much higher”. Also, the “phages bound to AAV9-coated plate” value in [5] (vs PB5-5 and PB5-14 phages) was “much more”. The “toxicity (MTT assay)” value in data set [6] is given as “no toxicities”. The “AAV9 transduction, PB5-3 incubated with AAV9 virions” value in [7] (2 hrs at 4° C. pre-incubation, Huh7, Hela, C2C12 and hCMEC/D3) is recorded as “enhanced transduction; also recorded: specifically enhances AAV9 transduction in vitro”. For the same substance, the “AAV9 transduction, PB5-3 without incubation” value in data set [7] (PB5-3 added to cells just before infection of AAV9) is recorded as “failed to increase AAV9 transduction”. The “transduction of AAV2, 6 or 8” value in data set [8] is on record as “No enhanced transduction; also recorded: no enhancement”. For the same substance, in [9] (1×10^10 particles AAV9/luc pre-incubated with PB5-3, retro-orbital vein), the “AAV9 transduction in brain (imaging)” value was “specifically enhanced AAV9 ability to cross the BBB and increase brain transduction; also recorded: high transduction in brain tissues”. In addition, the “AAV genome copy number in the brain” value in data set [9] (complex of AAV9 and PB5-3, not in other tissues) is “higher”. The “AAV9 transduction in the liver” value in data set [9] (with vs without PB5-3 pre-incubation) is “similar”. The “brain transduction from AAV6 and AAV8” value in data set [10] was “No brain transduction enhancement; also recorded: no effect”. Further, in data set [11], the “endothelial cell permeability of AAV9” value is given as “significant increase in the endothelial cell permeability; also recorded: increases AAV9 permeability”.
Turning to TFFYGGSRGKRNNFKTEEY-OH [Angiopep-2], in data set [2], the “transgene expression” value is “higher”. In addition, in data set [3], the “AAV8 brain transduction” value was “increased AAV8 transduction in the brain”. The “AAV genome copy number in the brain” value in data set [12] was “much higher”.
Take “(LRKLRKRLL)2 (LRKLRKRLLLRKLRKRLL) [ApoE (159-167)2]”: the “transgene expression” value in [2] is “higher”. Besides, the “AAV8 brain transduction” value in [3] is given as “increased AAV8 transduction in the brain”. For the same substance, the “AAV genome copy number in the brain” value in [12] is listed as “much higher”.
With “YQQILTSMPSRNVIQISNDLENLRDLLHVL [Leptin 30 (61-90)]”, the “AAV8 transduction (luciferase)” value in data set [1] is recorded as “significantly enhanced AAV8 transduction”. Further, the “transgene expression” value in data set [2] is “higher”. In data set [3], the “AAV8 brain transduction” value was “increased AAV8 transduction in the brain”. The “AAV genome copy number in the brain” value in data set [12] was “much higher”.

Values taken from patent publication US12281335B2, “Methods and compositions for delivery of viral vectors across the blood-brain barrier” (priority 2017, dated 2025).
